The assay deals with Phospho-2-dehydro-3-deoxyheptonate aldolase (Escherichia coli, UniProt C3TIE2). Kind of assay: Competitive inhibition of recombinant Escherichia coli DAH7P synthase using PEP as substrate by Michaelis-Menten equation analysis using UV-visible spectrophotometry.

As usually defined, the Ki is a dissociation constant, usually derived from enzyme kinetics or from competition with a known ligand.

Sequence of Phospho-2-dehydro-3-deoxyheptonate aldolase (C3TIE2 1-350): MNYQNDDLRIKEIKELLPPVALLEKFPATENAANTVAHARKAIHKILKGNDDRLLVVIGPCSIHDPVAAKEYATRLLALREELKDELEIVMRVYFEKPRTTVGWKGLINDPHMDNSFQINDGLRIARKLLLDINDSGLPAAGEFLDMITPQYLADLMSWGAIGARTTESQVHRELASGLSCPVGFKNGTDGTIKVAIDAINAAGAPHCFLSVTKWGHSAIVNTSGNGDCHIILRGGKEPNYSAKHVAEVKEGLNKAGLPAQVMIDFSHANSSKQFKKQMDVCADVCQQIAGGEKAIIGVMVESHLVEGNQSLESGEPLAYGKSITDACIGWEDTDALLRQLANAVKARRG

For the compound `O=C(O)C(=CCCCCOP(=O)(O)O)CP(=O)(O)O`, the Ki amounted to 154 µM.

Values taken from BindingDB's records for doi:10.1016/j.bmcl.2011.03.071 (University of Canterbury, 2011).
